Measured values as given in patent publication US12479846B2, “EZH2 inhibitor and use thereof” (PHARMABLOCK SCIENCES (NANJING) , INC., priority 2019, dated 2025).
pIC50: −log10 of the molar value.

How the values were obtained:
WSUDLCL-2 cells = assay: Cell proliferation inhibition test (CCK8), WSUDLCL-2; assay type: cell-based; details: Homo sapiens, WSUDLCL2, 288 h; B-cell non-Hodgkin's lymphoma cell line, 12 days incubation, CCK8 cell viability
Description: (§1) Cell Proliferation Inhibition Test
(§2) Karpass 422 and WSUDLCL-2 cells were purchased from the European Collection of Authenticated Cell Cultures (ECACC) and the German Collection of Microorganisms and Cell Cultures (Deutsche Sammlung von Mikroorganismen und Zellkulturen, DSMZ). RMBI 1640 medium, penicillin-streptomycin, heat-inactivated fetal bovine senum (FBS), and horse serum were purchased from ThermoFisher (Waltham MA, USA). Corning 96-well cell culture plate was purchased from ThermoFisher (Waltham MA, USA).
(§3) To evaluate the inhibitory effect of the synthesized compounds on the proliferation of B-cell non-Hodgkin's lymphoma Karpass 422 and WSUDLCL-2 cells, exponentially growing cells were inoculated in RMPI1640 medium containing 20% and 10% horse serum and 1% penicillin-streptomycin at concentrations of 2000 cells/ml and 3000 cells/ml, respectively, in 96-well plates, 100 μL per well, and incubated overnight in an incubator at 37° C. and 5% CO2. The compound was prepared in DMSO into a 10-point, 3-fold series diluent, starting at 6 mM. 1 μL of DMSO solution from a compound reserve plate was added to 99 μL of cell culture medium (the final maximum concentration of the compound in the assay was 30 μM and the final concentration of DMSO was 0.5%). 100 μL of compound solution from the medium was added to each well of the Karpass422 cell plate. After the addition of the compound solution, the assay plate was incubated at 37° C. and 5% CO2 for 12 days. During the incubation, the cell culture medium was replaced with the cell culture medium having the newly dissolved test compound every 4 days. After 100 μL of the old medium was removed from the cell plate, 100 μL of medium having dissolved test compound was added to the assay plate, which was prepared by adding 1 μL of compound DMSO series solution to 199 μL of cell medium with the same layout as the original preparation layout. Cell viability was measured by using cell count kit-8 (CCK8) purchased from Beyotime Biotechnology (Shanghai, China). 20 μL of CCK8 reagent was added to each well of the assay plate and incubated at 37° C. for 2 hours. The O.D. at 450 nm was read by using a FlexStation 3 microplate reader (Molecular Devices, Sunnyvale, CA 94089 USA).

Karpas422 cells = assay: Cell proliferation inhibition test (CCK8), Karpas422; assay type: cell-based; details: Homo sapiens, KARPAS-422, 288 h; B-cell non-Hodgkin's lymphoma cell line, 12 days incubation, CCK8 cell viability
Description: as §1, §2, §3

Wild-type PRC2/EZH2 = biological target: T1, Wild-type PRC2/EZH2 (Homo sapiens, UniProt Q15910); assay: PRC2/EZH2 HTRF enzyme inhibition test; assay type: biochemical; details: human recombinant PRC2 complex, 30 μM SAM, 10 μM biotin-H3 (21-44) peptide
T1 construct: purchased Reaction Biology (Malvern, PA); host or cells: insect cell/baculovirus expression system
T1 sequence (Q15910 whole entry): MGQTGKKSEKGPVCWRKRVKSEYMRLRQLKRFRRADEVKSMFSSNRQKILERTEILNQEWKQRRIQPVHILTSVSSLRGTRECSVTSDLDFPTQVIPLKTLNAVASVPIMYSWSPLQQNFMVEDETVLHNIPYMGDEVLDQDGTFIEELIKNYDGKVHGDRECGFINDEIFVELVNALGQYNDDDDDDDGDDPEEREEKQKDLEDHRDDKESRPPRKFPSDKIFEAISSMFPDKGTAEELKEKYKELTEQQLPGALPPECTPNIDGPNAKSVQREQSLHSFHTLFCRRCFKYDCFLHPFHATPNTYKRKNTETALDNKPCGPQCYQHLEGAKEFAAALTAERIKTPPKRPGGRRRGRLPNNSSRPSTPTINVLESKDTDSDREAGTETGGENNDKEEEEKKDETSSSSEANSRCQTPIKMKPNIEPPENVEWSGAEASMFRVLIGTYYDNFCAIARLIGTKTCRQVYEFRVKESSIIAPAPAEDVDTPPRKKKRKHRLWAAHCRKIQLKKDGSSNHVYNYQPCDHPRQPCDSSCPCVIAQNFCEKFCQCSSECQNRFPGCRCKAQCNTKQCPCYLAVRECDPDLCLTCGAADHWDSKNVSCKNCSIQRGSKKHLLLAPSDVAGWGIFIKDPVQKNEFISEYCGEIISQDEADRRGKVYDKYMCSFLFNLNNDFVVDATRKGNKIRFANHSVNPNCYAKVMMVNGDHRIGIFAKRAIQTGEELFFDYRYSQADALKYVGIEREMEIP
T1 sequence (Q6ZN18 whole entry partner): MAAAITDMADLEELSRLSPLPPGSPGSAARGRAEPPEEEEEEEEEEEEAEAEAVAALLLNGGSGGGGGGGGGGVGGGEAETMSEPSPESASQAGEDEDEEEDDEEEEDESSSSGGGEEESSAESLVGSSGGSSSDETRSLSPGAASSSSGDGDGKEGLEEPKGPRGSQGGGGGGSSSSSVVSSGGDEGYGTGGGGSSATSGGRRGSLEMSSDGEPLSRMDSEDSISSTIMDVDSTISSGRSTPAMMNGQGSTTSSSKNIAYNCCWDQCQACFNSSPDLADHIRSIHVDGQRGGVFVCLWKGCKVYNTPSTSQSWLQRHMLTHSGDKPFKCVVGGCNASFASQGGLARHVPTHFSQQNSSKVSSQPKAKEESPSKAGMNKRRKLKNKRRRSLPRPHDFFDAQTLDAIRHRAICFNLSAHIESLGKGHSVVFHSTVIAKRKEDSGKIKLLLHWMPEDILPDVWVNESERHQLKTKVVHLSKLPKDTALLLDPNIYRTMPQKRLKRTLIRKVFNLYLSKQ
T1 sequence (O75530 whole entry partner): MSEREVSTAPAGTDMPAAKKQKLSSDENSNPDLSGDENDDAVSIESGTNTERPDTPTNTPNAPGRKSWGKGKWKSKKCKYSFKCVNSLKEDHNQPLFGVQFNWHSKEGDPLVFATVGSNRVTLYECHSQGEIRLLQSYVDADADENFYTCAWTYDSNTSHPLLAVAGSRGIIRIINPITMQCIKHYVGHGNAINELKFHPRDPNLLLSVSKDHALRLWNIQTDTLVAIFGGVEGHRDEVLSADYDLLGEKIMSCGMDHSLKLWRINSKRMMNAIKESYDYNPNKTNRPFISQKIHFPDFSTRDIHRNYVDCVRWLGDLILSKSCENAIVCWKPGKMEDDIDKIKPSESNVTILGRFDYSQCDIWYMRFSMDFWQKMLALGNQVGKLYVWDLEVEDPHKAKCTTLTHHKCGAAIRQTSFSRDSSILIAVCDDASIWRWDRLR
T1 sequence (Q09028 whole entry partner): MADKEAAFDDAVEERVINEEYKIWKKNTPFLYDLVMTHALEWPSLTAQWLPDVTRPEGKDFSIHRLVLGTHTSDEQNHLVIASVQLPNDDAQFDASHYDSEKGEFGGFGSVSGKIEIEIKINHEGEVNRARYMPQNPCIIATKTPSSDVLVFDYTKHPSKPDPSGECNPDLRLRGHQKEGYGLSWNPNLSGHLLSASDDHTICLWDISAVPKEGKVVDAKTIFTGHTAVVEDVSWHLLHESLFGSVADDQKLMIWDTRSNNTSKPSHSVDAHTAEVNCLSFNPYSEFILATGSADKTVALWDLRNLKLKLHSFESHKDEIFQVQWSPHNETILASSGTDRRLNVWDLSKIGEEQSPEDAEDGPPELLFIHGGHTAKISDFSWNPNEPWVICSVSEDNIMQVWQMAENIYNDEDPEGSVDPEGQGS
T1 sequence (Q15022 whole entry partner): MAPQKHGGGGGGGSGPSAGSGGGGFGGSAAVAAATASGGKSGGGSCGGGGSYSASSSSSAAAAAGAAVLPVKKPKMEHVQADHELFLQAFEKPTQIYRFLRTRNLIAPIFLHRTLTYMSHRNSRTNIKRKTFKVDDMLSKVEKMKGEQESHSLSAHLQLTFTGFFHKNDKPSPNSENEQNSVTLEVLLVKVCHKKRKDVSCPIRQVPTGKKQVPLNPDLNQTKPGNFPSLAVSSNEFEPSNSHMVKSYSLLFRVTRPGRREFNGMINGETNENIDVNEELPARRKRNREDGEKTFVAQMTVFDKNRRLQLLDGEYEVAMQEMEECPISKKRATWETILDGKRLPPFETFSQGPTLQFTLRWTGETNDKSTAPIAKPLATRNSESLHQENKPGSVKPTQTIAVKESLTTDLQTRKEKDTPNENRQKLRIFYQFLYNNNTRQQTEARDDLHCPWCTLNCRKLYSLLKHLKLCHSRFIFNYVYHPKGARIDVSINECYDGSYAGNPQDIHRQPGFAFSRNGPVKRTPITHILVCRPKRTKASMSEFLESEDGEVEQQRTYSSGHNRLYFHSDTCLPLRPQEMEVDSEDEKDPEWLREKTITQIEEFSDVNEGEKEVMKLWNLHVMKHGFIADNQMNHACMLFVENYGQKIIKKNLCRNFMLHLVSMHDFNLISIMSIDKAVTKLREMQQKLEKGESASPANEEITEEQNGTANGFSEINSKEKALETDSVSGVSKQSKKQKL
Description: The human recombinant PRC2 complex was composed of human recombinant EZH2, AEBP2, EED, RbAp48, and SUZ12, co-expressed in an insect cell/baculovirus expression system, and purchased from Reaction Biology (Malvern, PA). […] The HTRF detection kit including monoclonal antibody histone H3K27Mel-Eu (K) fluorescent donor and streptavidin labeled XL665 fluorescent receptor was purchased from Cisbio (Shanghai, China). S-adenosylmethionine (SAM), Tween 20, dimethyl sulfoxide (DMSO), and Tris buffer at the highest purity level were purchased from Sigma.
The experiment was carried out in a buffer consisting of 50 mM Tris, pH 9.0, 0.1% BSA, and 0.01% Tween 20, and 1 mM DTT was added before the experiment started. 2.5 μL of a solution of a compound in 4% DMSO and 5 μL of PRC2/SAM mixed solution pre-incubated for 30 minutes were added to the buffer, and then the buffer was added to a white low-volume 384-well microtiter plate. The mixture solution was gently shaken and incubated at room temperature for 15 minutes. 2.5 μL of biotin-H3 (21-44) peptide substrate solution was added to the buffer to initiate the methyl transfer reaction. The final concentrations of PRC2, SAM, biotin-H3 peptide substrate, and DMSO were 2 ng/L, 30 μM, 10 μM, and 1%, respectively. The reaction was gently shaken at room temperature away from light for 120 minutes, and then 10 μL of monoclonal antibody histone H3K27Mel-Eu (K) fluorescent donor and streptavidin-labeled XL665 fluorescent receptor in the detection buffer from the manufacturer were added to the reaction mixture for incubation for 60 minutes. The final concentrations of these two reagents were 50 ng/ml and 62.5 nM, respectively. The plate was read on an Envision multi-template reader from PerkinElmer (Waltham MA USA) with an excitation wavelength of 320 nm and emission wavelengths of 665 and 615 nm. The IC50 value of the inhibitor was obtained by fitting an S-shaped dose-response curve (variable slope, four parameters) of fluorescence intensities at 665 nm and 615 nm over inhibitor concentrations by using Prism 7 (La Jolla, CA).

Row | SMILES | pIC50 (Karpas422 cells) | pIC50 (Wild-type PRC2/EZH2) | pIC50 (WSUDLCL-2 cells)
1 | COc1cc(C)[nH]c(=O)c1CN1CCn2ccc3cc(-c4c(C)noc4C)c(Cl)c(c32)C1=O [Compound 1, 10-chloro-9-(3,5-dimethylisoxazol-4-yl)-2-((4-methoxy-6-methyl-2-oxo-1,2-dihydropyridin-3-yl)methyl)-3,4-dihydro-[1,4]diazepino[6,7,1-HI]indol-1(2H)-one] | 7.28 |  | 8.42
2 | CCN(c1cc2ccn3c2c(c1Cl)C(=O)N(Cc1c(OC)cc(C)[nH]c1=O)CC3)C1COC1 [Compound 2, 10-chloro-9-(ethyl(oxetan-3-yl)amino)-2-((4-methoxy-6-methyl-2-oxo-1,2-dihydropyridin-3-yl)methyl)-3,4-dihydro-[1,4]diazepino[6,7,1-HI]indol-1(2H)-one] |  | 8.42 | 
3 | COc1cc(C)[nH]c(=O)c1CN1CCn2ccc3cc(-c4c(C)cnn4C)c(Cl)c(c32)C1=O [Compound 5, 10-chloro-9-(1,4-dimethyl-1H-pyrazol-5-yl)-2-((4-methoxy-6-methyl-2-oxo-1,2-dihydropyridin-3-yl)methyl)-3,4-dihydro-[1,4]diazepino[6,7,1-HI]indol-1(2H)-one] |  | 6.60 | 
4 | COc1cc(C)[nH]c(=O)c1CN1CCn2cc(Cl)c3cc(-c4c(C)cnn4C)c(Cl)c(c32)C1=O [Compound 6, 7,10-dichloro-9-(1,4-dimethyl-1H-pyrazol-5-yl)-2-((4-methoxy-6-methyl-2-oxo-1,2-dihydropyridin-3-yl)methyl)-3,4-dihydro-[1,4]diazepino[6,7,1-HI]indol-1(2H)-one] |  | 5.95 | 
5 | COc1cc(C)[nH]c(=O)c1CN1CCn2ccc3cc(-c4c(C)nn(CCO)c4C)c(Cl)c(c32)C1=O [Compound 7, 10-chloro-9-(1-(2-hydroxyethyl)-3,5-dimethyl-1H-pyrazol-4-yl)-2-((4-methoxy-6-methyl-2-oxo-1,2-dihydropyridin-3-yl)methyl)-3,4-dihydro-[1,4]diazepino[6,7,1-HI]indol-1(2H)-one] |  | 5.44 | 
6 | COc1cc(C)[nH]c(=O)c1CN1CCn2ccc3cc(-c4c(C)nn(CC#N)c4C)c(Cl)c(c32)C1=O [Compound 8, 2-(4-(10-chloro-2-((4-methoxy-6-methyl-2-oxo-1,2-dihydropyridin-3-yl)methyl)-1-oxo-1,2,3,4-tetrahydro-[1,4]diazepino[6,7,1-HI]indol-9-yl)-3,5-dimethyl-1H-pyrazol-1-yl)acetonitrile] |  | 5.96 | 
7 | COc1cc(C)[nH]c(=O)c1CN1CCn2ccc3cc(C(OC)C4COC4)c(Cl)c(c32)C1=O (stereo not shown) [Compound 9, 10-chloro-9-(methoxy(oxetan-3-yl)methyl)-2-((4-methoxy-6-methyl-2-oxo-1,2-dihydropyridin-3-yl)methyl)-3,4-dihydro-[1,4]diazepino[6,7,1-HI]indol-1(2H)-one] |  | 7.67 | 
8 | COc1cc(C)[nH]c(=O)c1CN1CCn2ccc3cc([C@H](OC)C4COC4)c(Cl)c(c32)C1=O [Compound 10, (R)-10-chloro-9-(methoxy(oxetan-3-yl)methyl)-2-((4-methoxy-6-methyl-2-oxo-1,2-dihydropyridin-3-yl)methyl)-3,4-dihydro-[1,4]diazepino[6,7,1-HI]indol-1(2H)-one] | 7.94 | 8.14 | 8.62
9 | COc1cc(C)[nH]c(=O)c1CN1CCn2ccc3cc(C(OC)C4COC4)c(C)c(c32)C1=O (stereo not shown) [Compound 14, 9-(methoxy(oxetan-3-yl)methyl)-2-((4-methoxy-6-methyl-2-oxo-1,2-dihydropyridin-3-yl)methyl)-10-methyl-3,4-dihydro-[1,4]diazepino[6,7,1-HI]indol-1(2H)-one] | 7.54 | 7.93 | 8.32
10 | COc1cc(C)[nH]c(=O)c1CN1C(=O)c2c(Cl)c(-c3c(C)noc3C)cc3ccn(c23)CC1C (stereo not shown) [Compound 17, 10-chloro-9-(3,5-dimethylisoxazol-4-yl)-2-((4-methoxy-6-methyl-2-oxo-1,2-dihydropyridin-3-yl)methyl)-3-methyl-3,4-dihydro-[1,4]diazepino[6,7,1-HI]indol-1(2H)-one] | 7.46 | 7.85 | 8.92

Further lines, with some results ahead:

Row | pIC50 (Karpas422 cells) | pIC50 (Wild-type PRC2/EZH2) | SMILES | pIC50 (WSUDLCL-2 cells)
11 |  | 7.70 | COc1cc(C)[nH]c(=O)c1CN1CCN2CCc3cc(-c4c(C)noc4C)c(Cl)c(c32)C1=O [Compound 3, 10-chloro-9-(3,5-dimethylisoxazol-4-yl)-2-((4-methoxy-6-methyl-2-oxo-1,2-dihydropyridin-3-yl)methyl)-3,4,6,7-tetrahydro-[1,4]diazepino[6,7,1-HI]indol-1(2H)-one] | 
12 |  | 5.60 | COc1cc(C)[nH]c(=O)c1CN1CCn2ccc3cc(-c4c(C)nn(C)c4C)c(Cl)c(c32)C1=O [Compound 4, 10-chloro-2-((4-methoxy-6-methyl-2-oxo-1,2-dihydropyridin-3-yl)methyl)-9-(1,3,5-trimethyl-1H-pyrazol-4-yl)-3,4-dihydro-[1,4]diazepino[6,7,1-HI]indol-1(2H)-one] | 
13 | 6.03 | 6.25 | COc1cc(C)[nH]c(=O)c1CN1CCn2ccc3cc([C@@H](OC)C4COC4)c(Cl)c(c32)C1=O [Compound 11, (S)-10-chloro-9-(methoxy(oxetan-3-yl)methyl)-2-((4-methoxy-6-methyl-2-oxo-1,2-dihydropyridin-3-yl)methyl)-3,4-dihydro-[1,4]diazepino[6,7,1-HI]indol-1(2H)-one] | 6.98
14 | 7.06 |  | COc1cc(C)[nH]c(=O)c1CN1CCn2ncc3cc(-c4c(C)noc4C)c(Cl)c(c32)C1=O [Compound 12, 5-chloro-4-(3,5-dimethylisoxazol-4-yl)-7-((4-methoxy-6-methyl-2-oxo-1,2-dihydropyridin-3-yl)methyl)-8,9-dihydro-[1,4]diazepino[6,7,1-HI]indazol-6(7H)-one] | 7.96
15 | 6.44 |  | COc1cc(C)[nH]c(=O)c1CN1CCn2cnc3cc(-c4c(C)noc4C)c(Cl)c(c32)C1=O [Compound 13, 5-chloro-4-(3,5-dimethylisoxazol-4-yl)-7-((4-methoxy-6-methyl-2-oxo-1,2-dihydropyridin-3-yl)methyl)-8,9-dihydro-2,7,9a-triazabenzo[cd]azulen-6(7H)-one] | 7.25
16 | 7.30 | 7.75 | COc1cc(C)[nH]c(=O)c1CN1CCn2ccc3cc(-c4c(C)noc4C)c(C)c(c32)C1=O [Compound 15, 9-(3,5-dimethylisoxazol-4-yl)-2-((4-methoxy-6-methyl-2-oxo-1,2-dihydropyridin-3-yl)methyl)-10-methyl-3,4-dihydro-[1,4]diazepino[6,7,1-HI]indol-1(2H)-one] | 8.92
17 | 6.80 |  | COc1cc(C)[nH]c(=O)c1CN1CC(C)n2ccc3cc(-c4c(C)noc4C)c(Cl)c(c32)C1=O (stereo not shown) [Compound 16, 10-chloro-9-(3,5-dimethylisoxazol-4-yl)-2-((4-methoxy-6-methyl-2-oxo-1,2-dihydropyridin-3-yl)methyl)-4-methyl-3,4-dihydro-[1,4]diazepino[6,7,1-HI]indol-1(2H)-one] | 8.34
